What was measured:
Test in all cases: relative viability (nuclei count vs DMSO), 5 days (fraction); higher = more cells survive
[1] = compound: O=C(O)CCCCC(CCSCc1ccccc1)SCc1ccccc1 [CPI-613]
Method in brief: (§1)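 Five library-drug doses, separated by factors of √10, were pinned into 1536-well plates holding lung cancer cell lines after an overnight stay at 37 °C. Cells were fixed, permeabilised and Hoechst-stained in one step after 5 days without medium change, then imaged at 4×. Viability compares treated-well with vehicle-well nuclei, counted in MetaXpress, as a median across plates. Passing plates had control CV below 25% and at least one doubling.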

[2] = compound: Cc1sc2c(c1C)C(c1ccc(Cl)cc1)=N[C@@H](CC(=O)OC(C)(C)C)c1nnc(C)n1-2 [JQ1]
Method in brief: as §1

[3] = compound: O=c1[nH]c2ccccc2n1C1CCN(CCCC(c2ccc(F)cc2)c2ccc(F)cc2)CC1 [Pimozide]
Method in brief: as §1

[4] = compound: Nc1ccn([C@@H]2O[C@H](CO)[C@@H](O)[C@@H]2O)c(=O)n1 [Cytarabine]
Method in brief: as §1

[5] = compound: CC(=O)O[C@@]12CO[C@@H]1C[C@H](O)[C@@]1(C)C(=O)[C@H](O)C3=C(C)[C@@H](OC(=O)[C@H](O)[C@@H](NC(=O)OC(C)(C)C)c4ccccc4)C[C@@](O)([C@@H](OC(=O)c4ccccc4)[C@H]21)C3(C)C [Docetaxel]
Method in brief: as §1

[6] = compound: Cc1cnc(-c2cnc(NCCNc3ccc(C#N)cn3)nc2-c2ccc(Cl)cc2Cl)[nH]1
Method in brief: as §1

[7] = compound: COc1cc2nccc(Oc3ccc(NC(=O)Nc4cc(C)on4)c(Cl)c3)c2cc1OC [Tivozanib]
Method in brief: as §1

| Cell Line | relative viability ([1]; 5 µM) | relative viability ([1]; 15.81 µM) | relative viability ([1]; 50 µM) | relative viability ([1]; 158.11 µM) | relative viability ([1]; 500 µM) | relative viability ([2]; 0.04 µM) | relative viability ([2]; 0.1265 µM) | relative viability ([2]; 0.4 µM) | relative viability ([2]; 1.265 µM) | relative viability ([2]; 4 µM) | relative viability ([3]; 0.08 µM) | relative viability ([3]; 0.253 µM) | relative viability ([3]; 0.8 µM) | relative viability ([3]; 2.53 µM) | relative viability ([3]; 8 µM) | relative viability ([4]; 0.005 µM) | relative viability ([4]; 0.01581 µM) | relative viability ([4]; 0.05 µM) | relative viability ([4]; 0.1581 µM) | relative viability ([4]; 0.5 µM) | relative viability ([5]; 0.0002 µM) | relative viability ([5]; 0.000632 µM) | relative viability ([5]; 0.002 µM) | relative viability ([5]; 0.006325 µM) | relative viability ([5]; 0.02 µM) | relative viability ([6]; 0.08 µM) | relative viability ([6]; 0.253 µM) | relative viability ([6]; 0.8 µM) | relative viability ([6]; 2.53 µM) | relative viability ([7]; 0.005 µM) | relative viability ([7]; 0.01581 µM) | relative viability ([7]; 0.05 µM) | relative viability ([7]; 0.1581 µM) | relative viability ([7]; 0.5 µM) |
| --- | --- | --- | --- | --- | --- | --- | --- | --- | --- | --- | --- | --- | --- | --- | --- | --- | --- | --- | --- | --- | --- | --- | --- | --- | --- | --- | --- | --- | --- | --- | --- | --- | --- | --- |
| SW 900 | 0.837 | 0.642 | 1.02 | 0.601 | 0.0301 | 0.87 | 0.766 | 0.557 | 0.26 | 0.209 | 0.916 | 0.84 | 0.468 | 0.811 | 0.742 | 0.725 | 0.674 | 0.564 | 0.26 | 0.204 | 0.69 | 0.422 | 0.292 | 0.232 | 0.174 | 0.902 | 0.803 | 0.759 | 0.729 | 0.894 | 0.855 | 0.844 | 0.4 | 0.791 |
| SW 1573 | 0.917 | 0.851 | 0.958 | 0.482 | 0.314 | 0.869 | 0.791 | 0.637 | 0.365 | 0.345 | 0.923 | 1.02 | 0.945 | 0.82 | 0.637 | 0.969 | 0.87 | 0.725 | 0.38 | 0.157 | 0.872 | 0.485 | 0.252 | 0.205 | 0.152 | 1.1 | 0.999 | 0.997 | 0.6 | 0.969 | 0.914 | 1.01 | 0.903 | 0.829 |
| UMC-11 | 0.945 | 0.924 | 0.911 | 0.474 | 0.133 | 0.926 | 0.742 | 0.43 | 0.29 | 0.26 | 1.01 | 0.983 | 0.961 | 0.976 | 1.07 | 0.75 | 0.554 | 0.551 | 0.316 | 0.264 | 0.912 | 0.944 | 0.456 | 0.279 | 0.187 | 0.943 | 0.787 | 0.929 | 1.02 | 0.944 | 0.954 | 0.965 | – | 0.927 |
